From US20240335394A1 (Ludwig Institute for Cancer Research Ltd, priority 2021, published 2024)

Tests used:
[1] = humans; cited from earlier work
syngeneic MC38 tumors = assay: MC38 study: anti-PD1 antibody alone or with methanol or sodium formate, tumor volume and survival; type: in vivo, C57BL/6 mice
Protocol: Tumor volumes were measured by caliper twice weekly.

MC38 cells = assay: MC38 rechallenge of mice that cleared tumors; type: in vivo; details: 6 mice cleared by methanol plus anti-PD1, reinoculated with 5×10^5 MC38 cells on opposite flank, untreated, observed three weeks
Description: The rechallenged mice were monitored twice weekly for tumor growth for three weeks. Fifteen age-matched, tumor-naïve control mice were simultaneously inoculated as a control. The mice were not treated during the observation interval.

[2] = Body weight in the MC38 study; details: methanol 2 g/kg daily oral gavage or sodium formate 0.5% w/v in drinking water, with anti-PD1
Protocol: Female C57BL/6 mice (10 per group) were inoculated subcutaneously with 5×10^5 MC38 syngeneic mouse tumor cells. […] Tumor volumes were measured by caliper twice weekly.

[3] = primates; cited from earlier work
1C-starved T-cells = details: formate supplementation; cited from earlier work
[4] = in vivo; cited from earlier work

Compound | lethal dose [1] [mg/kg] | response to anti-PD1 therapy (syngeneic MC38 tumors; methanol 2 g/kg daily oral gavage plus anti-PD1 antibody 5 mg/kg ip twice weekly, compared to vehicle or sodium formate) | synergy with immunotherapy in a mouse model of cancer (syngeneic MC38 tumors; mouse model of cancer) | tumor development after rechallenge (MC38 cells) | effects on body weight [2] | formate levels at which symptomatic toxicity is observed [3] | T-cell activity (1C-starved T-cells) | elimination [4]
CO [methanol] | 300 to 1000 | improved response to anti-PD1 therapy | synergize with immunotherapy | did not develop tumors | – | – | – | –
O=C[O-].[Na+] [sodium formate] | – | – | – | – | No effects on body weight | greater than 8 mM | rescues T-cell activity | too rapidly eliminated to dose directly
